Measurements from US10350219B2, “Antimicrobial compositions and methods of making the same” (priority 2013, dated 2019).

Tests used:
[1] = Steam sterilization (thermal stability, discoloration); format: physicochemical; details: hydrogel
Experimental: (b) Steam Sterilization • One steam sterilization cycle was imposed on gel prototypes to evaluate their ability to withstand elevated temperatures. The gel samples contained in 15 ml or 50 ml PP tubes or other non-hydrogel prototypes (in sealed foil pouches) were examined post sterilization for any adverse temperature effect on its color, viscosity, texture, phase separation etc.
A majority of the hydrogel prototypes of the present disclosure were tested for their ability to withstand elevated temperatures simply by subjecting them to one steam sterilization cycle. The test samples experienced temperature rises from 20 C to 122 C over 15 min, followed by constant temperature of 122 C for 15 min and finally a cool down from 122 C to ˜40 C over 3 h. Thus, the test samples experienced nearly 3.5 h of hostile temperature condition.
“Steam sterilizable” or “heat stable” or “inert to heat” is defined as having no visible sign of discoloration (color change following exposure that will add shade of black, brown, yellow or purple) after one steam sterilization cycle (122 C for 15 min) that includes periods of warming up and final cool down to room temperature (<40 C).

[2] = Table Lamp Light Exposure Test (TLE), discoloration; format: physicochemical; details: gel with glycerol 10%, clay 4%, silver 0.054% weight; for Gel color after continuous light exposure: After 24 h: 60 W table lamp; for Gel color after continuous light exposure: Fresh: 60 W table lamp at 1 to 1.5 feet
Experimental: (a) Table Lamp Light Exposure Test (TLE) • The samples of the said compositions contained in either glass vials or 15 ml PP tubes (BD Falcon) were placed under a table lamp (turned on) at a distance of 12 to 15 inches for continuous exposure. The incandescent lamp wattage was 60 W. After the desired duration of exposure, the test samples were examined for visible discoloration by holding it against a white plain paper. Non-hydrogel samples were examined against the control samples protected from light.

rats = details: cited from earlier work
[3] = theor. silver content 110 ppm, ratio of cyanurate/silver ions 5
[4] = theor. silver content 220 ppm, ratio of cyanurate/silver ions 2.5

O=c1[n-]c(=O)[nH]c(=O)[nH]1.O=c1[n-]c(=O)[nH]c(=O)[nH]1.[Ag+].[Na+] [Na[Ag(C3N3O3H2)2], Sodium silver cyanurate ligand complex Na[Ag(C3N3H2O3)2] or its hydrate]
Color after steam sterilization [1, 3]: No discoloration
Color before steam sterilization [1, 3]: Hazy to clear
Color after steam sterilization [1, 4]: No discoloration
Color before steam sterilization [1, 4]: Hazy to clear

O=C([O-])c1ccccc1.[Ag+] [Silver Benzoate]
Gel color after continuous light exposure: After 24 h [2]: Brown black

O=C([O-])CO.[Ag+] [Silver Glycolate]
Gel color after continuous light exposure: After 24 h [2]: Brown grey

C=C(CC(=O)[O-])C(=O)[O-].[Ag+].[Ag+] [Silver Itaconate]
Gel color after continuous light exposure: After 24 h [2]: Brown black

O=C([O-])/C=C\C(=O)O.[Ag+] [Silver Mono-maleate]
Gel color after continuous light exposure: Fresh [2]: Smooth hazy gel
Gel color after continuous light exposure: After 24 h [2]: Brown yellow

O=C([O-])C(O)C(O)C(=O)O.[Ag+] (centres unmarked) [Silver Mono-tartrate]
Gel color after continuous light exposure: Fresh [2]: Hazy gel
Gel color after continuous light exposure: After 24 h [2]: Brown black

CCC(=O)[O-].[Ag+] [Silver Propionate]
Gel color after continuous light exposure: After 24 h [2]: Brown black

O=C1[N-]S(=O)(=O)c2ccccc21.[Ag+] [Silver Saccharinate]
Gel color after continuous light exposure: Fresh [2]: Yellow brown

O=C(O)c1ccccc1 [benzoic acid]
LD50 (rats): 2530 mg/kg of body weight

O=c1[nH]c(=O)[nH]c(=O)[nH]1 [cyanuric acid]
LD50 (rats): 7700 mg/kg of body weight
lethal dose LD50 (rats; internet source): 7.70 g/kg of body weight

Silver Benzene sulfonate
Gel color after continuous light exposure: Fresh [2]: Brown after 0.5 h
Gel color after continuous light exposure: After 24 h [2]: Brown black

Silver Gluconate
Gel color after continuous light exposure: After 24 h [2]: Brown black

Silver Sorbate
Gel color after continuous light exposure: After 24 h [2]: Brown black
